We go through 19 compounds from patent US9296723B2, “NAMPT inhibitors” (AbbVie Inc., priority 2012, dated 2016).

Structures are written as SMILES.

Assay [1] has as its system PC3 cells. The experiment in a line: NAMPT Cell Proliferation Assay (Cell Titer Glo). The format is cell-based. The settings on record: Homo sapiens, PC-3, 120 h, incubated 5 days, cell viability. The method, boiled down:
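PC3 cells (500/well, RPMI with 10% heat-inactivated FBS) were exposed to 10-fold compound dilutions from […] for 5 days at 37 °C, 5% CO2. Viability was read with Cell Titer Glo; IC50 from sigmoidal fit of percent inhibition.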
(ATP-based viability assays read luminescence as a measure of living cells.)

The target of assay [2] is T1, NAMPT (Homo sapiens, UniProt P43490). As to the kind of experiment: TR-FRET Binding Assay of NAMPT with PRPP. Particulars: 2 nM NAMPT, 2 nM probe, 200 µM PRPP and 2.5 mM ATP, equilibrated 16 hours. The protocol:
Time-Resolved Fluorescence Resonance Energy Transfer (TR-FRET) Binding Assay of NAMPT with PRPP
Compound handling and data processing were identical to the assay in the absence of substrates (above). Final concentrations were 1× assay buffer, 2% DMSO, 2 nM NAMPT, 2 nM probe, 1 nM Tb-anti-His antibody (Invitrogen #PV5895), 200 µM PRPP and 2.5 mM ATP. Reactions were equilibrated for 16 hours prior to measurement to allow for potential enzymatic modification of test compounds.
For orientation: TR-FRET usually uses a lanthanide donor and a delayed reading to cut background.

For assay [3], the target named is T1, NAMPT. The experiment in a line: Time-Resolved Fluorescence Resonance Energy Transfer (TR-FRET) Binding Assay of NAMPT. The settings on record: 6.8 nM NAMPT, 200 nM probe, equilibrated 3 hours, no substrates. Summed up: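 Compound was mixed with enzyme, probe and antibody and equilibrated 3 h at room temperature. TR-FRET read at Ex 337 nm, Em 520/495 nm. Ratios were normalized to controls and fitted to a four-parameter logistic equation for IC50.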

T1 sequence (P43490 whole entry): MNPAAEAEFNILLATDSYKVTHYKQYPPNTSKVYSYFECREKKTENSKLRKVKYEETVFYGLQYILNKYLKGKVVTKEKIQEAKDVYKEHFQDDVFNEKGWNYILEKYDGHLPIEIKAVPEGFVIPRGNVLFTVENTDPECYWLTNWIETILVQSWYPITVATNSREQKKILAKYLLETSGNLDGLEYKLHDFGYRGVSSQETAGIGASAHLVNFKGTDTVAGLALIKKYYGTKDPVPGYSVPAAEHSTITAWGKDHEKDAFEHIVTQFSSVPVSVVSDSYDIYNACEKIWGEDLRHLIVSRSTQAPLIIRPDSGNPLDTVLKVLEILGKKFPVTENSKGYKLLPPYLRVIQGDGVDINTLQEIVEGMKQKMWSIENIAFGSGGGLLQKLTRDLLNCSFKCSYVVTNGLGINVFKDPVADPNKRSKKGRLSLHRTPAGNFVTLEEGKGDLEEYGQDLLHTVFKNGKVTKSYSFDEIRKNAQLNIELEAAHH

As to `CC[C@H](C)C(=O)N1CCC(Oc2ccc(NC(=O)N3CC(c4cccnc4)C3)cc2)CC1` [Example 4, N-[4-({1-[(2S)-2-methylbutanoyl]piperidin-4-yl}oxy)phenyl]-3-(pyridin-3-yl)azetidine-1-carboxamide], the IC50 (usually the point on the concentration scale where inhibition reaches its midpoint) in assay [1] came out at 14 nM; in assay [2], 0.195 nM; in assay [3], 19.7 nM.

As for `O=C(CC(F)(F)F)N1CCC(Oc2ccc(NC(=O)N3CC(c4cccnc4)C3)cc2)CC1` [Example 6, 3-(pyridin-3-yl)-N-(4-{[1-(3,3,3-trifluoropropanoyl)piperidin-4-yl]oxy}phenyl)azetidine-1-carboxamide], the IC50 in assay [1] amounted to 30.6 nM; in assay [2] it was 0.224 nM; in assay [3], 53.4 nM.

Regarding `CC(C)(O)C(=O)N1CCC(Oc2ccc(NC(=O)N3CC(c4cccnc4)C3)cc2)CC1` [Example 7, N-(4-{[1-(2-hydroxy-2-methylpropanoyl)piperidin-4-yl]oxy}phenyl)-3-(pyridin-3-yl)azetidine-1-carboxamide], the IC50 in assay [1] came to 38.5 nM; in assay [2], 0.344 nM; in assay [3], 57.8 nM.

Regarding `Cc1ccc(C2CN(C(=O)Nc3ccc(OC4CCN(C(=O)CC5CCOCC5)CC4)cc3)C2)cn1` [Example 8, 3-(6-methylpyridin-3-yl)-N-(4-{[1-(tetrahydro-2H-pyran-4-ylacetyl)piperidin-4-yl]oxy}phenyl)azetidine-1-carboxamide], the figures for the half-maximal inhibitory concentration (IC50) in assay [1], in assay [2] and in assay [3] were 7030 nM, 15.4 nM and 617 nM, respectively.

`CC[C@H](C)C(=O)N1CC=C(c2ccc(NC(=O)N3CC(c4cccnc4)C3)cc2)CC1` [Example 9, N-(4-{1-[(2S)-2-methylbutanoyl]-1,2,3,6-tetrahydropyridin-4-yl}phenyl)-3-(pyridin-3-yl)azetidine-1-carboxamide]: the IC50 in assay [1] was 6.82 nM; in assay [2], 0.346 nM; in assay [3], 16.3 nM.

Regarding `O=C(Nc1ccc(C2=CCN(C(=O)[C@H]3CCCO3)CC2)cc1)N1CC(c2cccnc2)C1` [Example 10, 3-(pyridine-3-yl)-N-(4-{1-[(2R)-tetrahydrofuran-2-ylcarbonyl]-1,2,3,6-tetrahydropyridin-4-yl}phenyl)azetidine-1-carboxamide], the IC50 was determined as 38.9 nM in assay [1], 0.25 nM in assay [2] and 41.5 nM in assay [3].

Consider `O=C(Nc1ccc(C2=CCN(C(=O)[C@@H]3CCCO3)CC2)cc1)N1CC(c2cccnc2)C1` [Example 11, 3-(pyridine-3-yl)-N-(4-{1-[(2S)-tetrahydrofuran-2-ylcarbonyl]-1,2,3,6-tetrahydropyridin-4-yl}phenyl)azetidine-1-carboxamide], for which the figures for the IC50 in assay [1], in assay [2] and in assay [3] were 9.33 nM, 0.32 nM and 15.8 nM, respectively.

As for `CC(C)(O)C(=O)N1CC=C(c2ccc(NC(=O)N3CC(c4cccnc4)C3)cc2)CC1` [Example 12, N-{4-[1-(2-hydroxy-2-methylpropanoyl)-1,2,3,6-tetrahydropyridin-4-yl]phenyl}-3-(pyridin-3-yl)azetidine-1-carboxamide], the IC50 amounted to 10.1 nM in assay [1], 0.43 nM in assay [2] and 32.1 nM in assay [3].

With `COC(=O)c1ccc(NC(=O)N2CC(c3cccnc3)C2)cc1` [Example 13, methyl 4-({[3-(pyridin-3-yl)azetidin-1-yl]carbonyl}amino)benzoate], the values for the IC50 in assay [1], in assay [2] and in assay [3] were 514 nM, 0.374 nM and 201 nM, respectively.

With `N#Cc1ccc(NC(=O)N2CC(c3cccnc3)C2)cc1` [Example 14, N-(4-cyanophenyl)-3-(pyridin-3-yl)azetidine-1-carboxamide], the IC50 amounted to 6680 nM in assay [1], 0.178 nM in assay [2] and 879 nM in assay [3].

As for `CC(C)(C)OC(=O)N1CCC(CCCCNC(=O)N2CC(c3cccnc3)C2)CC1` [Example 15, tert-butyl 4-[4-({[3-(pyridin-3-yl)azetidin-1-yl]carbonyl}amino)butyl]piperidine-1-carboxylate], the figures for the IC50 in assay [1], in assay [2] and in assay [3] were 99.9 nM, 0.917 nM and 307 nM, respectively.

As to `CC(C)(C)CC(=O)N1CC=C(c2ccc(NC(=O)N3CC(c4cccnc4)C3)cc2)CC1` [Example 17, N-{4-[1-(3,3-dimethylbutanoyl)-1,2,3,6-tetrahydropyridin-4-yl]phenyl}-3-(pyridin-3-yl)azetidine-1-carboxamide], the IC50 was 36.8 nM in assay [1], 0.568 nM in assay [2] and 16.9 nM in assay [3].

On to `O=C(CC(F)(F)F)N1CC=C(c2ccc(NC(=O)N3CC(c4cccnc4)C3)cc2)CC1` [Example 18, 3-(pyridin-3-yl)-N-{4-[1-(3,3,3-trifluoropropanoyl)-1,2,3,6-tetrahydropyridin-4-yl]phenyl}azetidine-1-carboxamide], for which the IC50 in assay [1] turned out to be 65.8 nM; in assay [2], 0.294 nM; in assay [3], 36.7 nM.

For the compound `O=C(CCC(F)(F)F)N1CC=C(c2ccc(NC(=O)N3CC(c4cccnc4)C3)cc2)CC1` [Example 19, 3-(pyridin-3-yl)-N-{4-[1-(4,4,4-trifluorobutanoyl)-1,2,3,6-tetrahydropyridin-4-yl]phenyl}azetidine-1-carboxamide], the IC50 stood at 192 nM in assay [1], 0.86 nM in assay [2] and 153 nM in assay [3].

With `COCC(=O)N1CC=C(c2ccc(NC(=O)N3CC(c4cccnc4)C3)cc2)CC1` [Example 20, N-{4-[1-(methoxyacetyl)-1,2,3,6-tetrahydropyridin-4-yl]phenyl}-3-(pyridin-3-yl)azetidine-1-carboxamide], the figures for the IC50 in assay [1], in assay [2] and in assay [3] were 123 nM, 0.5 nM and 68.4 nM, respectively.

`CSCC(=O)N1CC=C(c2ccc(NC(=O)N3CC(c4cccnc4)C3)cc2)CC1` [Example 21, N-(4-{1-[(methylsulfanyl)acetyl]-1,2,3,6-tetrahydropyridin-4-yl}phenyl)-3-(pyridin-3-yl)azetidine-1-carboxamide]: the half-maximal inhibitory concentration (IC50) in assay [1] was 33.7 nM; in assay [2] it was 0.381 nM; in assay [3], 32.5 nM.

In the case of `CCOCC(=O)N1CC=C(c2ccc(NC(=O)N3CC(c4cccnc4)C3)cc2)CC1` [Example 22, N-{4-[1-(ethoxyacetyl)-1,2,3,6-tetrahydropyridin-4-yl]phenyl}-3-(pyridin-3-yl)azetidine-1-carboxamide], the figures for the half-inhibitory concentration (IC50) in assay [1], in assay [2] and in assay [3] were 276 nM, 0.63 nM and 143 nM, respectively.

`COCCOCC(=O)N1CC=C(c2ccc(NC(=O)N3CC(c4cccnc4)C3)cc2)CC1` [Example 23, N-(4-{1-[(2-methoxyethoxy)acetyl]-1,2,3,6-tetrahydropyridin-4-yl}phenyl)-3-(pyridin-3-yl)azetidine-1-carboxamide]: the IC50 came out at 195 nM in assay [1], 0.551 nM in assay [2] and 97.8 nM in assay [3].

In the case of `CSCCC(=O)N1CC=C(c2ccc(NC(=O)N3CC(c4cccnc4)C3)cc2)CC1` [Example 24, N-(4-{1-[3-(methylsulfanyl)propanoyl]-1,2,3,6-tetrahydropyridin-4-yl}phenyl)-3-(pyridin-3-yl)azetidine-1-carboxamide], the IC50 amounted to 113 nM in assay [1], 0.988 nM in assay [2] and 170 nM in assay [3].
